From patent publication US12065420B2, “Uses of balaenone and method of extraction thereof” (HARDIE HEALTH LIMITED, priority 2018, dated 2024) come the findings set out here.

Each structure is given as a SMILES string.

Data set [1] concerns Staphylococcus epidermidis. The data set can be described thus: TLC bioautography antibacterial assay, S. epidermidis. Type of data set: cell-based. As to conditions: qualitative. How it is done: (§1) The crude (1st methanolic) extract of M. latifolia bark and five chromatographic fractions obtained using the purification process outlined in Example 1 were submitted for TLC bioautography studies for qualitative determination of antibacterial activity.
(§2) Briefly, a reference plate was prepared by loading the samples on a silica gel TLC plate which was developed using an established solvent system (10% ethyl acetate in petroleum ether) to separate their components based on polarity. The developed plates were then visualised using 5% v/v sulfuric acid in methanol+0.1% w/v vanillin in ethanol, followed by heat. Using this method, Balaenone was distinguished as a bright pink to red spot (see FIG. 7).
(§3) Multiple copies of this plate were then prepared and developed using the same solvent system, but instead are visualised by pouring agar inoculated/spiked with one of the following micro-organisms (see below) and allowed to incubate before visualisation with a reduction dye.

For another data set, the system named is Staphylococcus aureus. The data set can be described thus: TLC bioautography antibacterial assay, S. aureus. It counts as cell-based. The note with it: qualitative. The protocol:
as §1, §2, §3

Data set [2] can be described thus: Storage stability of Balaenone. Type of data set: physicochemical. The note with it: away from light and oxygen. The text has this: Final purification of trans-Balaenone on silica gel separated it from an oxygenated aromatic compound, subsequently identified as halifordin (8). Without being bound by theory, it is believed that degradation is due to the presence of halifordin (8), which is also present in the methanol extract of M. latifolia.
In a separate experiment, purified trans-Balaenone was photochemically reacted with atmospheric oxygen in the presence of Rose Bengal (another known photogenerator of singlet oxygen), which generated 7b among other oxidation products.
Removal of halifordin (8) from the extract provides a purified composition of trans-Balaenone in which trans-Balaenone is stable at room temperature, when stored away from light and oxygen. It is believed that the same process would occur with respect to cis-Balaenone.

For `CC1=C2c3c(C)coc3CCC(C)C2CC1=O` (stereo not shown) [Balaenone], the “antibacterial activity (zones of inhibition)” value (in data set [1]; with Staphylococcus aureus) was “zones of inhibition” each time.

Take `CC1=C2c3c(C)coc3CC[C@H](C)[C@H]2CC1=O` [trans-Balaenone, (6S,6aR)-1,6,9-trimethyl-5,6,6a,7-tetrahydroazuleno[5,4-b]furan-8(4H)-one]: the stability on storage result in data set [2] (cool temperatures) is on record as “quite stable”; in data set [2] (room temperature, in the absence of halifordin (8)), “essentially stable”.
